In one assay the target is T1, human Nav1.1 (Homo sapiens, UniProt P35498).
T1 construct: host or cells: HEK293
As to the kind of experiment: Amplification of Nav1.1-derived voltage-dependent sodium current (Nav1.1 current), cell line stably expressing human Nav1.1, automated patch clamp. The settings on record: read-out: Nav1.1 current amplification rate (%); for activation at 10 µM: 10 μmol/L compound, change of the area under the curve of Nav1.1 current (Test Result 1); for activation at 1 µM: compound 1 μmol/L. The format is cell-based. Put shortly: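 Amplification rate (%) is 100 × post-compound/pre-compound Nav1.1 peak current or AUC, minus 100. Ramp-evoked sodium currents were recorded by automated patch clamp in a human Nav1.1 HEK293 stable line, restricted to cells exceeding 500 pA, with compounds added in extracellular solution containing 1% DMSO.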
In general terms: The patch-clamp technique gives a direct electrical read-out from membranes.

Another assay has as its target T2, human Nav1.5 (Homo sapiens, UniProt Q14524).
T2 construct: expressed in transfected cells; host or cells: CHO-K1 (T-REx System, ThermoFisher Scientific)
As to the kind of experiment: Amplification of Nav1.5-derived voltage-dependent sodium current (Nav1.5 current), cell line stably expressing human Nav1.5, automated patch clamp. Type of assay: cell-based. To be noted: read-out: Nav1.5 current amplification rate (%); for activation at 10 µM: 10 μmol/L compound, change of the area under the curve of Nav1.5 current (Test Result 1); for activation at 1 µM: compound 1 μmol/L.

Setting [1] is: HEK293 stably expressing human Nav1.1.
Setting [2] is: CHO-K1 stably expressing human Nav1.5.

T2 sequence (Q14524 1-2015 isoform Q14524-2): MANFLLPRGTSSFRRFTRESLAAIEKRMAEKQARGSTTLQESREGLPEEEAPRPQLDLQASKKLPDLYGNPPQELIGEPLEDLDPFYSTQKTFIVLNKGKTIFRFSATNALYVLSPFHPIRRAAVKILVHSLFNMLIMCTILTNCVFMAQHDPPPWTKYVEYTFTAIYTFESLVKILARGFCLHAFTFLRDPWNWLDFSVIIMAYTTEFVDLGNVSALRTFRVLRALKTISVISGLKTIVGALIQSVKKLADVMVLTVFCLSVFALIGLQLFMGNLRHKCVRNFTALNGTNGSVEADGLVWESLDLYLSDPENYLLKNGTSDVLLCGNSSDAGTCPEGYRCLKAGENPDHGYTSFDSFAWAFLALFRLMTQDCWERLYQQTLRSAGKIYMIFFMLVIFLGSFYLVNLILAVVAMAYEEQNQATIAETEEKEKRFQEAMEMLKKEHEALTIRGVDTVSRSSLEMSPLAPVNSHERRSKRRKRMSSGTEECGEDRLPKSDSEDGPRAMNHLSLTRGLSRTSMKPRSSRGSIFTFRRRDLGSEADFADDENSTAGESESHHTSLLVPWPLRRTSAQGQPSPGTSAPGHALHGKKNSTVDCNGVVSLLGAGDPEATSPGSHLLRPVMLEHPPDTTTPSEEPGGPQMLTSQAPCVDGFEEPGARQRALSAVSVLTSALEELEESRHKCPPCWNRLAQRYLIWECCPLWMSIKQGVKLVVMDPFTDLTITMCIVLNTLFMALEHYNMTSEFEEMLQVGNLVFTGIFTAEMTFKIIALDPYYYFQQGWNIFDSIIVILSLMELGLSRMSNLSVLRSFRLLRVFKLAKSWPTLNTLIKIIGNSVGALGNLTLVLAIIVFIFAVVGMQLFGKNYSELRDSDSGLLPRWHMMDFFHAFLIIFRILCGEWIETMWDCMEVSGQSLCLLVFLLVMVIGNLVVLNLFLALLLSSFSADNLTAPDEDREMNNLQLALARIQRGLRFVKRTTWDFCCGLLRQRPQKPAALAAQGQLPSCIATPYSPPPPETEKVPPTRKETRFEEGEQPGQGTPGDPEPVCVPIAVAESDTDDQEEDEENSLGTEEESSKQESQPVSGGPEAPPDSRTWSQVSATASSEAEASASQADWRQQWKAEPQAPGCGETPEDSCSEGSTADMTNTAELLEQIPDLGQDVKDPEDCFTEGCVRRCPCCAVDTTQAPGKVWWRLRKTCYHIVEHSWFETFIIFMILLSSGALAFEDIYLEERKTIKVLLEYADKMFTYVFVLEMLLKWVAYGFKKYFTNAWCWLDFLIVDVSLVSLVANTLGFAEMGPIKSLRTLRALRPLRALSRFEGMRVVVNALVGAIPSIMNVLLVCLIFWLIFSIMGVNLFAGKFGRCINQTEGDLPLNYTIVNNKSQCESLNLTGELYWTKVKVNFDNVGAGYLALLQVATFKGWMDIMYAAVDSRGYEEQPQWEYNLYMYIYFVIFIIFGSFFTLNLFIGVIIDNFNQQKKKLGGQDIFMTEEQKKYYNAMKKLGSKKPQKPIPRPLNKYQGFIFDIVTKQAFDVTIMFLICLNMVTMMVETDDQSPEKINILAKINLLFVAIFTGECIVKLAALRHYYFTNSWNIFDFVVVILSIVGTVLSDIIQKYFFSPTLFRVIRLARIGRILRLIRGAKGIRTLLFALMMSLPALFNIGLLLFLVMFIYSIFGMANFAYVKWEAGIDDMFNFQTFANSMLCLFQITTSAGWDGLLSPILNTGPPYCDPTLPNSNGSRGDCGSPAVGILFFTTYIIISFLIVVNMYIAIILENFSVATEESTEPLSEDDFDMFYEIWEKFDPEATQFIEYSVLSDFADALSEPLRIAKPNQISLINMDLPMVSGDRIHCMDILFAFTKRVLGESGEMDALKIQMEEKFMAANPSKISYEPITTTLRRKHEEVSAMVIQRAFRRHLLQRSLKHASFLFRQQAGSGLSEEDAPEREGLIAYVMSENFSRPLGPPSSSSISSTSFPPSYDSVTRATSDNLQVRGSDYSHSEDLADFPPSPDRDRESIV

Regarding `Cc1cc(=O)n(CC(=O)Nc2ccc3ocnc3c2)nc1N1CCC2(CCC2)C1` [Example 205], the activation at 10 µM was 235% at human Nav1.1 and 20% at human Nav1.5.

As for `O=C(Cn1nc(N2CCC3(CCCC3)C2)cc(N2CCCC2)c1=O)Nc1ccc2ocnc2c1` [Example 206], the results for the activation at 10 µM at human Nav1.1 and on human Nav1.5 were 154% and 33%, respectively.

`O=C(Cn1nc(N2CCC3(CCC3)C2)cc(N2CCCC2)c1=O)Nc1ccc2ocnc2c1` [Example 207]: the values for the activation at 10 µM at human Nav1.1 and at human Nav1.5 were 89% and 7%, respectively.

As for `O=C(Cn1nc(N2CCC3(CCC3)C2)c(N2CCCC2)cc1=O)Nc1ccc2ocnc2c1` [Example 208], the activation at 10 µM on human Nav1.1 was found to be 200%; on human Nav1.5, 18%.

On to `Cc1c(N2CCC3(CCC3)C2)nn(CC(=O)Nc2ccn3ccnc3c2)c(=O)c1C` [Example 209], for which the activation at 10 µM on human Nav1.1 amounted to 179%; on human Nav1.5, 16%.

`CN(C)c1cc(N2CCC(C)(C)CC2)nn(CC(=O)Nc2ccn3ccnc3c2)c1=O` [Example 211]: the activation at 10 µM at human Nav1.1 was 212%; on human Nav1.5, 8%.

For `COc1cc(N2CCC(C)(C)CC2)nn(CC(=O)Nc2ccn3ccnc3c2)c1=O` [Example 212], the activation at 10 µM at human Nav1.1 amounted to 74%; on human Nav1.5, 3%.

On to `COc1cc(N2CCC3(CCC3)C2)nn(CC(=O)Nc2ccn3ccnc3c2)c1=O` [Example 213], for which the values for the activation at 10 µM at human Nav1.1 and at human Nav1.5 were 136% and 5%, respectively.

Take `CC1(C)CN(c2ccc(=O)n(CC(=O)Nc3ccc4ocnc4c3)n2)CCC12CC2(F)F` (centres unmarked) [Example 214]: the activation at 10 µM at human Nav1.1 was 64%; at human Nav1.5 it was -1%.

Regarding `Cc1nc2cc(NC(=O)Cn3nc(N4CCC(C)CC4)ccc3=O)cc(Cl)c2o1` [Example 215], the activation at 10 µM on human Nav1.1 was determined as 183%; on human Nav1.5, 18%.

Take `CC1CCN(c2ccc(=O)n(CC(=O)Nc3cc(F)c4ocnc4c3)n2)CC1` [Example 216]: the activation at 10 µM was determined as 121% on human Nav1.1 and 3% on human Nav1.5.

In the case of `CC1CCN(c2ccc(=O)n(CC(=O)Nc3ccc(C(=O)N4CCCC4)nc3)n2)CC1` [Example 217], the activation at 10 µM at human Nav1.1 is 25%; on human Nav1.5 it was 1%.

As to `CC1CCN(c2ccc(=O)n(CC(=O)N3CCc4c(N5CCOCC5)cccc43)n2)CC1` [Example 218], the activation at 1 µM was found to be 155% at human Nav1.1 (setting [1]) and 9% on human Nav1.5 (setting [2]).

For the compound `CC1CCN(c2ccc(=O)n(CC(=O)N3CCc4cc(N5CCCC5=O)ccc43)n2)CC1` [Example 219], the activation at 10 µM at human Nav1.1 was found to be 97%; on human Nav1.5 it was 12%.

Consider `CC1CCN(c2ccc(=O)n(CC(=O)N3CCc4cc(N5CCN(C)CC5)ccc43)n2)CC1` [Example 220], for which the activation at 10 µM was determined as 50% on human Nav1.1 and 5% at human Nav1.5.

On to `CC1(C)CCN(c2ccc(=O)n(CC(=O)N3CCc4c(N5CCOCC5)cccc43)n2)CC1` [Example 221], for which the activation at 10 µM is 281% at human Nav1.1 and 15% on human Nav1.5.

As to `CN(C)c1cc(N2CCC3(CCC3)C2)nn(CC(=O)N2CCc3c(N4CCOCC4)cccc32)c1=O` [Example 222], the activation at 1 µM came out at 137% on human Nav1.1 (setting [1]) and 11% at human Nav1.5 (setting [2]).

Consider `CN1CCN(c2cccc3c2CCN3C(=O)Cn2nc(N3CCC(C)(C)CC3)ccc2=O)CC1` [Example 223], for which the activation at 10 µM was determined as 46% on human Nav1.1 and 0% on human Nav1.5.

Consider `COc1cc(N2CCC(C)(C)CC2)nn(CC(=O)N2CCc3c(N4CCOCC4)cccc32)c1=O` [Example 224], for which the activation at 10 µM at human Nav1.1 worked out at 118%; on human Nav1.5, 11%.

With `Cc1cc(N2CCC3(CCC3)C2)nn(CC(=O)N2CCc3c(N4CCN(C)CC4)cccc32)c1=O` [Example 225], the activation at 10 µM at human Nav1.1 amounted to 146%; on human Nav1.5, 2%.

Take `Cc1c(N2CCC3(CCC3)C2)nn(CC(=O)N2CCc3c(N4CCOCC4)cccc32)c(=O)c1C` [Example 226]: the activation at 10 µM on human Nav1.1 was determined as 319%; on human Nav1.5, 71%.

Regarding `COc1cc(N2CCC3(CCC3)C2)nn(CC(=O)N2CCc3c(N4CCOCC4)cccc32)c1=O` [Example 227], the activation at 3 µM on human Nav1.1 (compound 3 μmol/L, HEK293 stably expressing human Nav1.1) was 303%; at human Nav1.5 (compound 3 μmol/L, CHO-K1 stably expressing human Nav1.5), 17%.

Values taken from patent US20220347175A1, “PYRIDAZINONE DERIVATIVE” (Sumitomo Dainippon Pharma Co., Ltd., priority 2018, published 2022).
